In ChEMBL document CHEMBL4725337, “Modification of imidazothiazole derivatives gives promising activity in B-Raf kinase enzyme inhibition; synthesis, in vitro studies and molecular docking” (Bioorg Med Chem Lett, 2020):
pIC50: −log10 of the molar value.

Each molecule was assayed on UACC-62 (assay: Antiproliferative activity against human UACC-62 cells at 10 uM relative to control).
Type: functional

Structure (SMILES) | Activity [%]
Nc1cccc(-c2nc3sccn3c2-c2ccnc(NCCCCNS(=O)(=O)c3ccc(Br)cc3)n2)c1 | 3.91

What follows are molecules tested against Serine/threonine-protein kinase B-raf (Homo sapiens, UniProt P15056, V600E) (assay: Inhibition of BRAF V600E mutant (unknown origin)).
Chain of Serine/threonine-protein kinase B-raf (P15056 2-766 V600E limits assumed): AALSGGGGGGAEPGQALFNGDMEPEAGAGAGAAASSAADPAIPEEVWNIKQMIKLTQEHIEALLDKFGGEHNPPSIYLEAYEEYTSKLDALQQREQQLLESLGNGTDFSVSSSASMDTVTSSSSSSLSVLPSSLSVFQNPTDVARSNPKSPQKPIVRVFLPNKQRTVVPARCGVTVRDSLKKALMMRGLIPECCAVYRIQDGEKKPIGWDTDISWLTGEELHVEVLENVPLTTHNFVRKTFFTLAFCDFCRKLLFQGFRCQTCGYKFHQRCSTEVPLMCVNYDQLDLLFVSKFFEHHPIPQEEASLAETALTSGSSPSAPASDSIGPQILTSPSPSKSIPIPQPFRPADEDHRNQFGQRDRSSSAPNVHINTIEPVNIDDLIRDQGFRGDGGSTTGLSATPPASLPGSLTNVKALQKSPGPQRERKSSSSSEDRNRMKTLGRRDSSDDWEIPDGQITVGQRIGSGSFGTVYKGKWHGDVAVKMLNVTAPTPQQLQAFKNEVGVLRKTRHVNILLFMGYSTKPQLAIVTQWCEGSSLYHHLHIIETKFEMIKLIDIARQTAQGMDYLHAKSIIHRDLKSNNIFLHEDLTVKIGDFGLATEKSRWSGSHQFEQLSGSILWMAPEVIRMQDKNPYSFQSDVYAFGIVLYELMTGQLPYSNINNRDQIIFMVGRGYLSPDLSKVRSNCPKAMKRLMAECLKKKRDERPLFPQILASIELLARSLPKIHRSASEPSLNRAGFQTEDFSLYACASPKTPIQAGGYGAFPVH

Structure (SMILES) | pIC50
Nc1cccc(-c2nc3sccn3c2-c2ccnc(NCCNS(=O)(=O)c3ccc(F)cc3)n2)c1 | 7.90
Nc1cccc(-c2nc3sccn3c2-c2ccnc(NCCNS(=O)(=O)c3ccc(Cl)cc3)n2)c1 | 7.78
COc1ccc(S(=O)(=O)NCCNc2nccc(-c3c(-c4cccc(N)c4)nc4sccn34)n2)cc1 | 7.63
Nc1cccc(-c2nc3sccn3c2-c2ccnc(NCCNS(=O)(=O)c3ccc(Br)cc3)n2)c1 | 7.13
Nc1cccc(-c2nc3sccn3c2-c2ccnc(NCCCCNS(=O)(=O)c3ccc(Br)cc3)n2)c1 | 8.37
Nc1cccc(-c2nc3sccn3c2-c2ccnc(NCCNS(=O)(=O)c3cccc4ccccc34)n2)c1 | 6.82
Nc1cccc(-c2nc3sccn3c2-c2ccnc(NCCNS(=O)(=O)c3ccc(C(F)(F)F)cc3)n2)c1 | 6.85
Nc1cccc(-c2nc3sccn3c2-c2ccnc(NCCNS(=O)(=O)c3cccc(F)c3)n2)c1 | 7.55
Cc1ccc(S(=O)(=O)NCCNc2nccc(-c3c(-c4cccc(N)c4)nc4sccn34)n2)cc1 | 7.23
